According to PubChem BioAssay (NCI):
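Compound exposure: 48 hours, 5 concentrations, 96-well plates. TGI: concentration producing complete growth inhibition.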

Legend:
Assay in all cases: inhibition of tumour cell growth, NCI panel, 48 h
OVCAR-3 ovarian = tested on: OVCAR-3 ovarian
UACC-257 melanoma = tested on: UACC-257 melanoma
HCT-116 colon = tested on: HCT-116 colon
HS 578T breast = tested on: HS 578T breast
MOLT-4 leukemia = tested on: MOLT-4 leukemia
NCI-H226 lung = tested on: NCI-H226 lung
MDA-MB-231 breast = tested on: MDA-MB-231 breast
UACC-62 melanoma = tested on: UACC-62 melanoma
SN12C renal = tested on: SN12C renal
TK-10 renal = tested on: TK-10 renal

Compound	TGI (OVCAR-3 ovarian)	TGI (UACC-257 melanoma)	TGI (HCT-116 colon)	TGI (HS 578T breast)	TGI (MOLT-4 leukemia)	TGI (NCI-H226 lung)	TGI (MDA-MB-231 breast)	TGI (UACC-62 melanoma)	TGI (SN12C renal)	TGI (TK-10 renal)
CC(C)(C)OC(=O)N[C@@H](Cc1ccccc1)C(=O)N1CC[C@@H](C(=O)N2[C@H]3CC4CC[C@@]3(CS2(=O)=O)C4(C)C)N1	> 100 µM	> 100 µM	> 100 µM	> 100 µM	> 100 µM	> 100 µM	> 100 µM	> 100 µM	> 100 µM	–
O=C(n1c(=O)n(-c2ccc([N+](=O)[O-])cc2)c(=O)n1C(=O)C(Cl)(Cl)Cl)C(Cl)(Cl)Cl	> 100 µM	> 100 µM	> 100 µM	> 100 µM	–	> 100 µM	> 100 µM	> 100 µM	> 100 µM	> 100 µM
C[N+](C)(C)c1nc(N)nc2c1ncn2C1OC(CO)C(O)C1O (stereo not drawn)	> 100 µM	> 100 µM	> 100 µM	> 100 µM	> 100 µM	–	> 100 µM	> 100 µM	> 100 µM	> 100 µM
O=C(NNc1ccc([N+](=O)[O-])cc1)C1OC(CO)C(O)C1O (stereo not drawn)	> 100 µM	> 100 µM	> 100 µM	–	> 100 µM	> 100 µM	–	> 100 µM	> 100 µM	> 100 µM
Cc1cccc(-c2cc(=O)c3c(C)ccnc3[nH]2)c1	–	–	> 33.5 µM	> 100 µM	> 100 µM	> 100 µM	> 100 µM	> 100 µM	> 100 µM	> 100 µM
COC(=O)C1CC(C=O)=C(SC)N1 (stereo not drawn)	> 50 µM	> 50 µM	> 50 µM	> 50 µM	> 50 µM	–	> 50 µM	> 50 µM	–	> 50 µM
C[C@@H](CC(O)C(O)C(C)(C)O)C1CCC23CC12CCC1[C@@]2(C)CCC(=O)C(C)(C)C2CC(OC2OC(CO)C(O)C(O)C2O)[C@]13C (stereo partly drawn)	> 10 µM	–	> 10 µM	> 10 µM	> 10 µM	> 10 µM	> 10 µM	> 10 µM	> 10 µM	> 10 µM
CC(=O)Nc1oc(C)nc1C#N	–	> 100 µM	> 100 µM	> 100 µM	> 100 µM	–	> 100 µM	> 100 µM	> 100 µM	> 100 µM
C=C1C(=O)O[C@H]2[C@@H](O)[C@H](C)CCC/C(C)=C/CC[C@@]3(C)O[C@@H]3C[C@@H]12	31.1 µM	22.4 µM	12.4 µM	> 100 µM	–	3.34 µM	31.7 µM	22.6 µM	22.6 µM	3.95 µM
CC(C)=CCC/C(C)=C/CCC1(C)C2COC(=O)C21 (stereo not drawn)	> 100 µM	> 100 µM	> 100 µM	–	> 100 µM	> 100 µM	> 100 µM	> 100 µM	> 100 µM	> 100 µM
O=c1[nH]nc(Cc2ccc([N+](=O)[O-])cc2)[nH]1	> 100 µM	> 100 µM	> 100 µM	> 100 µM	> 100 µM	> 100 µM	–	> 100 µM	> 100 µM	> 100 µM
COC(=O)[C@]12CCC(=O)N1[C@H](C(=O)O)Cc1c2[nH]c2ccccc12	> 100 µM	> 100 µM	> 100 µM	> 100 µM	> 100 µM	–	> 100 µM	> 100 µM	> 100 µM	> 100 µM
O=C1C(=O)C(CCCO)(CCCO)CCCCCCCCC1(CCCO)CCCO	> 100 µM	> 100 µM	> 100 µM	> 100 µM	–	> 100 µM	–	> 100 µM	> 100 µM	> 100 µM
CC(=O)Oc1ccc(-c2c(OC(C)=O)c(OC(C)=O)c(-c3ccc(OC(C)=O)c(OC(C)=O)c3)c(OC(C)=O)c2OC(C)=O)cc1	30 µM	29.1 µM	40.2 µM	–	44.3 µM	35.5 µM	35.4 µM	33.7 µM	35.1 µM	29.6 µM
CN1C(C(=O)Nc2ccccn2)=C(O)c2ccccc2S1(=O)=O	> 100 µM	> 100 µM	> 100 µM	–	> 100 µM	> 100 µM	–	> 100 µM	> 100 µM	> 100 µM
NCCCN1CCN(CCCNc2ccc3ncn4c5ccccc5c(=O)c2c34)CC1	> 25 µM	19.1 µM	18.3 µM	22.1 µM	> 25 µM	–	3.71 µM	6.18 µM	3.68 µM	> 25 µM
Fc1ccccc1C1SCC2=Nc3ccccc3CN21 (stereo not drawn)	> 100 µM	> 100 µM	> 100 µM	> 100 µM	> 100 µM	–	> 100 µM	> 100 µM	> 100 µM	> 100 µM
Cn1cnc([N+](=O)[O-])c1Sc1nncc2[nH]cnc12	> 100 µM	> 100 µM	> 100 µM	–	> 100 µM	> 100 µM	> 100 µM	> 100 µM	> 100 µM	> 100 µM
C=C1C(=O)OC2C1CC1OC2C(C)CCC/C(C)=C\CCC1(C)O (stereo not drawn)	32.6 µM	72.8 µM	41 µM	–	21 µM	51.3 µM	–	26.4 µM	62.5 µM	–
CCCCN=C(OC1C=CCCC1)SC (stereo not drawn)	> 100 µM	> 100 µM	> 100 µM	–	> 100 µM	> 100 µM	> 100 µM	> 100 µM	> 100 µM	> 100 µM
CC1(C)CN=C(c2ccc3ccccc3c2O)N1	> 100 µM	> 100 µM	> 100 µM	> 100 µM	> 100 µM	–	> 100 µM	> 100 µM	> 100 µM	> 100 µM
COc1ccc(/C(Cl)=C(\C=O)c2ccc(Cl)cc2)cc1	32.1 µM	77.4 µM	20.8 µM	–	7.81 µM	48.1 µM	–	32.8 µM	13.6 µM	> 100 µM
Cc1cc(C(C)(C)C)c(OCCCN2CCOCC2)c(C(C)(C)C)c1	36.1 µM	32 µM	31.4 µM	38.6 µM	33.7 µM	–	32.2 µM	29.8 µM	33 µM	36.2 µM
